# Source: patent publication US8481750B2 (Boehringer Ingelheim International GmbH, priority 2009, dated 2013)
# pIC50: −log10 of the molar value.
# Target: LFA-1 binding to ICAM-1 (Homo sapiens, UniProt P05107+P20701)
# Assay: Inhibition of LFA-1 binding to ICAM-1 (LFA-1/Biotin-sICAM-1 AlphaScreen molecular assay)
# Conditions: highest compound concentration 1 μM in 1% DMSO, 37° C., 90 minutes
# Source text: Assay to Determine Inhibition of LFA-1 Binding to ICAM-1
# This assay protocol is designed to study the direct antagonism, by a test compound, of the interaction of ICAM-1 with the Leukointegrin CD18/CD11a (LFA-1).
# The LFA-1/Biotin-sICAM-1 molecular assay measures the ability of test compounds to inhibit binding of LFA-1 to Biotinylated-sICAM using AlphaScreen technology (Ref: Wilson, J, Rossi, C P, Carboni, S, Fremaux, C, Perrin, D, Soto, C, Kosco-Vilbois, M, and Scheer, A: A Homogeneous 384-Well High-Throughput Binding Assay for a TNF Receptor Using Alphascreen Technology. J Biomol Screen 2003; 8:522-532) that uses TS2/4(anti-LFA-1)-custom conjugated AlphaLisa acceptor beads and streptavidin-coated donor beads from PerkinElmer. The assay was performed in white OptiPlates-384 in a volume of 60 μL using assay buffer (Dulbecco's PBS containing calcium and magnesium, 2 mM MgCl2, 0.1 mM PMSF, 0.1% BSA, pH 7.1). To each well, Biotin-sICAM was added followed by purified LFA-1 (in buffer of 50 mM triethylamine, 150 mM NaCl, 1% beta octylglucoside, 2 mM MgCl2 neutralized to pH with 1M Tris-HCl, pH 7.5). For compound testing, compound was added in 5 uL to the above in 25 uL. LFA-1 and Biotin-sICAM-1 were used at concentrations that would yield a signal to background ratio of 8-10. The highest concentration of compound was 1 μM in 1% DMSO. Positive controls were wells without compound containing LFA-1, while blanks were wells without both compound and LFA-1. Plates were mixed and incubated at 37° C. for 90 minutes. This was followed by addition of 15 μL/well TS2/4-congugated acceptor beads diluted in PBS containing 0.1% BSA for a final concentration of 10 μg/mL. The plates were mixed and incubated in the dark for 30 minutes at room temperature followed by addition of 15 μL/well streptavidin-coated donor beads diluted in PBS containing 0.1% BSA at a final concentration of 15 μg/mL. The plates were mixed and incubated in the dark for 60 minutes at room temperature and then read on an EnVision Multilabel Reader using AlphaScreen 384-well OptiPlate protocol.
# Chain of LFA-1 binding to ICAM-1 (P20701 26-1170): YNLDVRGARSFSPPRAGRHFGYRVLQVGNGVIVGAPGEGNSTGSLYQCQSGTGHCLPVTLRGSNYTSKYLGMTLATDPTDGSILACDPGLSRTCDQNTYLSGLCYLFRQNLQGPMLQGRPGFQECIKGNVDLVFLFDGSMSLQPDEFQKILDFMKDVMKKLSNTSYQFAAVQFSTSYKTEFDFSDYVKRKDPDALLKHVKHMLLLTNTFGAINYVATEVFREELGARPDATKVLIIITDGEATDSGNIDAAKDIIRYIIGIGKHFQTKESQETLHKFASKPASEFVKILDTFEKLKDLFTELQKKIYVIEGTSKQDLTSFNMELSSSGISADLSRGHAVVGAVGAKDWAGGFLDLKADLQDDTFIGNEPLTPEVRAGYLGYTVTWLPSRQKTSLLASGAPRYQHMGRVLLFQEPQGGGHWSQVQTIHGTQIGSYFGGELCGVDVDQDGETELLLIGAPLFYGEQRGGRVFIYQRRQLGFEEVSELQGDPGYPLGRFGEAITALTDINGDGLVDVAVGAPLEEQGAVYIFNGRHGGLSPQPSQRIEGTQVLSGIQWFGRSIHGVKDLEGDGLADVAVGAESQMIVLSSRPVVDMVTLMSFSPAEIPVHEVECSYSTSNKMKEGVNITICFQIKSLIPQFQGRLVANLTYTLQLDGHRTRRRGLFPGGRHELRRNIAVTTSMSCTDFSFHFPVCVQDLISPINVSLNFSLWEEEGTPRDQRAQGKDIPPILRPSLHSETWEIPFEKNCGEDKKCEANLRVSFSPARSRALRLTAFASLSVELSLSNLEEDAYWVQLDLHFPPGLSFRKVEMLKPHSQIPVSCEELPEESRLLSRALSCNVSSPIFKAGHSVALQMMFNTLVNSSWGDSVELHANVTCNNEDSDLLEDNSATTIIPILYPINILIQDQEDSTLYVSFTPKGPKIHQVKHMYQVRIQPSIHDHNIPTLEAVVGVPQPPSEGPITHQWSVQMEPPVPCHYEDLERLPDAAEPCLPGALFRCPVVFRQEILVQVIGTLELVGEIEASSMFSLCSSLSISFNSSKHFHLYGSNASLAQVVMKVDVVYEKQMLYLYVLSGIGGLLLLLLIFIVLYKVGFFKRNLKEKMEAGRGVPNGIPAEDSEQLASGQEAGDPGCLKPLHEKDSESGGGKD
# Chain of LFA-1 binding to ICAM-1 (P05107 23-769): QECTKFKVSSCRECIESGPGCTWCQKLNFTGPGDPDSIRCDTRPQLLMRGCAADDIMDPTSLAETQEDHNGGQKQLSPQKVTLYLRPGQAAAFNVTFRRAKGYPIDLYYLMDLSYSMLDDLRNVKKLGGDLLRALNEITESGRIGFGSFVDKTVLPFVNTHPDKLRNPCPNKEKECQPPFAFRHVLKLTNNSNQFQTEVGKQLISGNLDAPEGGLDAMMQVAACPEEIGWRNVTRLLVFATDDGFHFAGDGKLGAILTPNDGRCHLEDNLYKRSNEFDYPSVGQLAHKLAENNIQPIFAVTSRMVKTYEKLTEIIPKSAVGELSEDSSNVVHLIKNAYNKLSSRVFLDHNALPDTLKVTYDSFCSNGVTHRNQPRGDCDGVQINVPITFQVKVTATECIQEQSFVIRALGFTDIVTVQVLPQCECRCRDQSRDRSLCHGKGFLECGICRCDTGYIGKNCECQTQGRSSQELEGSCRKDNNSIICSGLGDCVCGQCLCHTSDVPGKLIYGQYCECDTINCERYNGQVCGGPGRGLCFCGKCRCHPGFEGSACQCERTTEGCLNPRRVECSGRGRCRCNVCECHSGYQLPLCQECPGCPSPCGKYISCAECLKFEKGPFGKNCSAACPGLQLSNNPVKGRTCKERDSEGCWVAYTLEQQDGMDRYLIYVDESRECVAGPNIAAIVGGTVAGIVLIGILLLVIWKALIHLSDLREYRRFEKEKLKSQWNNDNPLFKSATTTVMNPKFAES
row,SMILES,pIC50
1,CC(=O)NC1CCN(C(=O)c2ccc(C3(NC(=O)C4(NC(=O)c5cnc6n5[C@](C)(Cc5ccc(C#N)cc5)C(=O)N6c5cc(Cl)cc(Cl)c5)CC4)CC3)nc2)C1 (stereo partly drawn) [compound 158],9.05
2,CN1CCN(C(=O)c2ccnc(C3(NC(=O)C4(NC(=O)c5cnc6n5[C@](C)(Cc5ccc(C#N)cc5)C(=O)N6c5cc(Cl)cc(Cl)c5)CC4)CC3)c2)CC1 [compound 156],8.96
3,C[C@@]1(Cc2ccc(C#N)cc2)C(=O)N(c2cc(Cl)cc(Cl)c2)c2ncc(C(=O)NC3(C(=O)NC4(c5ccc(C(=O)NCCN)cn5)CC4)CC3)n21 [compound 78],9.17
4,C[C@@]1(Cc2ccc(C#N)cc2)C(=O)N(c2cc(Cl)cc(Cl)c2)c2ncc(C(=O)NC3(C(=O)NC4(c5ccc(C(=O)NCc6ccccc6)cn5)CC4)CC3)n21 [compound 81],8.82
5,CC(NC(=O)c1cccc(C2(NC(=O)C3(NC(=O)c4cnc5n4[C@](C)(Cc4ccc(C#N)cc4)C(=O)N5c4cc(Cl)cc(Cl)c4)CC3)CC2)n1)c1cccnc1 (stereo partly drawn) [compound 47],8.41
6,C[C@@]1(Cc2ccc(C#N)cc2)C(=O)N(c2cc(Cl)cc(Cl)c2)c2ncc(C(=O)NC3(C(=O)NC4(c5ccc(C(=O)NCCc6ccncc6)cn5)CC4)CC3)n21 [compound 169],8.60
7,C[C@@]1(Cc2ccc(C#N)cc2)C(=O)N(c2cc(Cl)cc(Cl)c2)c2ncc(C(=O)NC3(C(=O)NC4(c5ccc(C(=O)NC6CCC6)cn5)CC4)CC3)n21 [compound 71],9.13
8,C[C@@]1(Cc2ccc(C#N)cc2)C(=O)N(c2cc(Cl)cc(Cl)c2)c2ncc(C(=O)NC3(C(=O)NC4(c5cc(C(=O)NCc6cccnc6)ccn5)CC4)CC3)n21 [compound 72],9.35
9,C[C@@]1(Cc2ccc(C#N)cc2)C(=O)N(c2cc(Cl)cc(Cl)c2)c2ncc(C(=O)NC3(C(=O)NC4(c5cc(C(=O)NC(CO)CO)ccn5)CC4)CC3)n21 [compound 129],9.26
10,CC(NC(=O)c1cccc(C2(NC(=O)C3(NC(=O)c4cnc5n4[C@](C)(Cc4ccc(C#N)cc4)C(=O)N5c4cc(Cl)cc(Cl)c4)CC3)CC2)n1)c1ccncc1 (stereo partly drawn) [compound 151],8.89
11,C[C@@]1(Cc2ccc(C#N)cc2)C(=O)N(c2cc(Cl)cc(Cl)c2)c2ncc(C(=O)NC3(C(=O)NC4(c5cc(C(=O)N6CCC(CO)CC6)ccn5)CC4)CC3)n21 [compound 7],8.85
12,C[C@@]1(Cc2ccc(C#N)cc2)C(=O)N(c2cc(Cl)cc(Cl)c2)c2ncc(C(=O)NC3(C(=O)NC4(c5cc(C(=O)N6CCNCC6)ccn5)CC4)CC3)n21 [compound 97],9.00
13,C[C@@]1(Cc2ccc(C#N)cc2)C(=O)N(c2cc(Cl)cc(Cl)c2)c2ncc(C(=O)NC3(C(=O)NC4(c5cccc(C(=O)N6CCCCC6)n5)CC4)CC3)n21 [compound 16],7.92
14,C[C@@]1(Cc2ccc(C#N)cc2)C(=O)N(c2cc(Cl)cc(Cl)c2)c2ncc(C(=O)NC3(C(=O)NC4(c5cc(C(=O)NCc6ccncc6)ccn5)CC4)CC3)n21 [compound 64],9.47
15,C[C@@]1(Cc2ccc(C#N)cc2)C(=O)N(c2cc(Cl)cc(Cl)c2)c2ncc(C(=O)NC3(C(=O)NC4(c5ccc(C(=O)N6CCC6)cn5)CC4)CC3)n21 [compound 90],9.54
16,CC(C)(CO)NC(=O)c1ccc(C2(NC(=O)C3(NC(=O)c4cnc5n4[C@](C)(Cc4ccc(C#N)cc4)C(=O)N5c4cc(Cl)cc(Cl)c4)CC3)CC2)nc1 [compound 86],9.25
17,CC(NC(=O)c1ccc(C2(NC(=O)C3(NC(=O)c4cnc5n4[C@](C)(Cc4ccc(C#N)cc4)C(=O)N5c4cc(Cl)cc(Cl)c4)CC3)CC2)nc1)c1ccccn1 (stereo partly drawn) [compound 160],9.43
18,CC(NC(=O)c1ccnc(C2(NC(=O)C3(NC(=O)c4cnc5n4[C@](C)(Cc4ccc(C#N)cc4)C(=O)N5c4cc(Cl)cc(Cl)c4)CC3)CC2)c1)c1ccccn1 (stereo partly drawn) [compound 149],9.54
19,C[C@@]1(Cc2ccc(C#N)cc2)C(=O)N(c2cc(Cl)cc(Cl)c2)c2ncc(C(=O)NC3(C(=O)NC4(c5cc(C(=O)N6CCCCC6CO)ccn5)CC4)CC3)n21 (stereo partly drawn) [compound 44],9.06
20,C[C@@]1(Cc2ccc(C#N)cc2)C(=O)N(c2cc(Cl)cc(Cl)c2)c2ncc(C(=O)NC3(C(=O)NC4(c5ccc(C(N)=O)cn5)CC4)CC3)n21 [compound 148],8.85
21,CC(C)(CO)NC(=O)c1ccnc(C2(NC(=O)C3(NC(=O)c4cnc5n4[C@](C)(Cc4ccc(C#N)cc4)C(=O)N5c4cc(Cl)cc(Cl)c4)CC3)CC2)c1 [compound 105],9.19

row,SMILES,pIC50
1,C[C@@]1(Cc2ccc(C#N)cc2)C(=O)N(c2cc(Cl)cc(Cl)c2)c2ncc(C(=O)NC3(C(=O)NC4(c5cccc(C(=O)N6CCOCC6)n5)CC4)CC3)n21 [compound 145],9.25
2,C[C@@]1(Cc2ccc(C#N)cc2)C(=O)N(c2cc(Cl)cc(Cl)c2)c2ncc(C(=O)NC3(C(=O)NC4(c5cccc(C(=O)NCc6ccccc6)n5)CC4)CC3)n21 [compound 25],7.49
3,CNC(=O)c1ccnc(C2(NC(=O)C3(NC(=O)c4cnc5n4[C@](C)(Cc4ccc(C#N)cc4)C(=O)N5c4cc(Cl)cc(Cl)c4)CC3)CC2)c1 [compound 31],9.17
4,C[C@@]1(Cc2ccc(C#N)cc2)C(=O)N(c2cc(Cl)c(F)c(Cl)c2)c2ncc(C(=O)NC3(C(=O)NC4(c5ccc(C(N)=O)cn5)CC4)CC3)n21 [compound 164],9.09
5,C[C@@]1(Cc2ccc(C#N)cc2)C(=O)N(c2cc(Cl)cc(Cl)c2)c2ncc(C(=O)NC3(C(=O)NC4(c5ccc(C(=O)N6CCNCC6)cn5)CC4)CC3)n21 [compound 56],9.22
6,C[C@@]1(Cc2ccc(C#N)cc2)C(=O)N(c2cc(Cl)cc(Cl)c2)c2ncc(C(=O)NC3(C(=O)NC4(c5cc(C(=O)NCCc6ccccn6)ccn5)CC4)CC3)n21 [compound 6],9.09
7,CC(=O)N1CCN(C(=O)c2ccnc(C3(NC(=O)C4(NC(=O)c5cnc6n5[C@](C)(Cc5ccc(C#N)cc5)C(=O)N6c5cc(Cl)cc(Cl)c5)CC4)CC3)c2)CC1 [compound 113],8.89
8,CN(C)C1CCN(C(=O)c2cccc(C3(NC(=O)C4(NC(=O)c5cnc6n5[C@](C)(Cc5ccc(C#N)cc5)C(=O)N6c5cc(Cl)cc(Cl)c5)CC4)CC3)n2)C1 (stereo partly drawn) [compound 111],8.60
9,C[C@@]1(Cc2ccc(C#N)cc2)C(=O)N(c2cc(Cl)cc(Cl)c2)c2ncc(C(=O)NC3(C(=O)NC4(c5cc(C(=O)N6CCC[C@H]6C(N)=O)ccn5)CC4)CC3)n21 [compound 122],8.77
10,CC(C)(O)CNC(=O)c1ccc(C2(NC(=O)C3(NC(=O)c4cnc5n4[C@](C)(Cc4ccc(C#N)cc4)C(=O)N5c4cc(Cl)cc(Cl)c4)CC3)CC2)nc1 [compound 117],9.43
11,CC(CO)NC(=O)c1ccc(C2(NC(=O)C3(NC(=O)c4cnc5n4[C@](C)(Cc4ccc(C#N)cc4)C(=O)N5c4cc(Cl)cc(Cl)c4)CC3)CC2)nc1 (stereo partly drawn) [compound 27],9.13
12,C[C@@]1(Cc2ccc(C#N)cc2)C(=O)N(c2cc(Cl)cc(Cl)c2)c2ncc(C(=O)NC3(C(=O)NC4(c5cc(C(=O)NCC6CC6)ccn5)CC4)CC3)n21 [compound 142],8.89
13,C[C@@]1(Cc2ccc(C#N)cc2)C(=O)N(c2cc(Cl)cc(Cl)c2)c2ncc(C(=O)NC3(C(=O)NC4(c5ccc(C(=O)NCCc6ccccn6)cn5)CC4)CC3)n21 [compound 93],9.21
14,C[C@@]1(Cc2ccc(C#N)cc2)C(=O)N(c2cc(Cl)cc(Cl)c2)c2ncc(C(=O)NC3(C(=O)NC4(c5cc(C(=O)NCCc6ccncc6)ccn5)CC4)CC3)n21 [compound 144],9.47
15,C[C@@H](NC(=O)c1cccc(C2(NC(=O)C3(NC(=O)c4cnc5n4[C@](C)(Cc4ccc(C#N)cc4)C(=O)N5c4cc(Cl)cc(Cl)c4)CC3)CC2)n1)c1ccccc1 [compound 118],7.48
16,C[C@@]1(Cc2ccc(C#N)cc2)C(=O)N(c2cc(Cl)cc(Cl)c2)c2ncc(C(=O)NC3(C(=O)NC4(c5cccc(C(=O)N6CCC(CO)CC6)n5)CC4)CC3)n21 [compound 18],8.74
17,C[C@@H](NC(=O)c1ccc(C2(NC(=O)C3(NC(=O)c4cnc5n4[C@](C)(Cc4ccc(C#N)cc4)C(=O)N5c4cc(Cl)cc(Cl)c4)CC3)CC2)nc1)c1ccccc1 [compound 65],8.68
18,CN(C)CCNC(=O)c1cccc(C2(NC(=O)C3(NC(=O)c4cnc5n4[C@](C)(Cc4ccc(C#N)cc4)C(=O)N5c4cc(Cl)cc(Cl)c4)CC3)CC2)n1 [compound 63],8.77
19,C[C@@]1(Cc2ccc(C#N)cc2)C(=O)N(c2cc(Cl)cc(Cl)c2)c2ncc(C(=O)NC3(C(=O)NC4(c5ccc(C(=O)NC6CC6)cn5)CC4)CC3)n21 [compound 126],8.59
20,C[C@@]1(Cc2ccc(C#N)cc2)C(=O)N(c2cc(Cl)cc(Cl)c2)c2ncc(C(=O)NC3(C(=O)NC4(c5cc(C(=O)NCc6ccco6)ccn5)CC4)CC3)n21 [compound 76],9.10
21,CN(C)C1CCN(C(=O)c2ccnc(C3(NC(=O)C4(NC(=O)c5cnc6n5[C@](C)(Cc5ccc(C#N)cc5)C(=O)N6c5cc(Cl)cc(Cl)c5)CC4)CC3)c2)C1 (stereo partly drawn) [Compound 1],8.85
